Source: publication PMC7316778 (Nature Communications, 2020)
Where “and” joins values, the source holds several entries; their conditions need not be identical. Identical values can stand only once. Like-named read-outs stand apart in the source and are kept apart here.

Assays:
Assay in all cases: SelectScreen kinase assay
BRSK2 = biological target: T1, BRSK2 (Homo sapiens, UniProt Q8IWQ3)
T1 sequence (Q8IWQ3 1-736): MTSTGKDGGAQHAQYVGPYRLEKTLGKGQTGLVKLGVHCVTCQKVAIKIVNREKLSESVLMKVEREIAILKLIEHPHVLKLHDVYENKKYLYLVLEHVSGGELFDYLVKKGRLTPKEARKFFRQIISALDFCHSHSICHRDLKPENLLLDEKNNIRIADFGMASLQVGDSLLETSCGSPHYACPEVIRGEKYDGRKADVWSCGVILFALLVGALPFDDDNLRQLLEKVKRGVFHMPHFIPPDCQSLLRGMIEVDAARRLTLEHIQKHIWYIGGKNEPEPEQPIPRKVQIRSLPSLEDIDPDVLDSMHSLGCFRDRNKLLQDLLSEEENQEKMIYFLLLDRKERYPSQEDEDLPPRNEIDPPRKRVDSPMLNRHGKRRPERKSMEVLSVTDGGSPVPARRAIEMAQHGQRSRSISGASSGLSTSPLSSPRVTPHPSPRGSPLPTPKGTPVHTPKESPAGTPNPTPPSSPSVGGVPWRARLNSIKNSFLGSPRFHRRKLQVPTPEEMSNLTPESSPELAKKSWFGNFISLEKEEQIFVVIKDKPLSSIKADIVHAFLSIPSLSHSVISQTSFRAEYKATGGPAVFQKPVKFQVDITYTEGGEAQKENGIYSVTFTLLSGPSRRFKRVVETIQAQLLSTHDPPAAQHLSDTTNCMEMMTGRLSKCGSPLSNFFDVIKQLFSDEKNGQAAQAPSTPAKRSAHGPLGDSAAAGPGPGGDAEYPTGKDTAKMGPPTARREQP
Experimental: (§1) Selectivity profiling assays were performed by the Invitrogen SelectScreen™ Services. […] The concentration of ATP was selected to be equal to the KM, unless indicated otherwise.

BTK = BTK (Homo sapiens, UniProt Q06187)
Chain of BTK (Q06187 whole entry): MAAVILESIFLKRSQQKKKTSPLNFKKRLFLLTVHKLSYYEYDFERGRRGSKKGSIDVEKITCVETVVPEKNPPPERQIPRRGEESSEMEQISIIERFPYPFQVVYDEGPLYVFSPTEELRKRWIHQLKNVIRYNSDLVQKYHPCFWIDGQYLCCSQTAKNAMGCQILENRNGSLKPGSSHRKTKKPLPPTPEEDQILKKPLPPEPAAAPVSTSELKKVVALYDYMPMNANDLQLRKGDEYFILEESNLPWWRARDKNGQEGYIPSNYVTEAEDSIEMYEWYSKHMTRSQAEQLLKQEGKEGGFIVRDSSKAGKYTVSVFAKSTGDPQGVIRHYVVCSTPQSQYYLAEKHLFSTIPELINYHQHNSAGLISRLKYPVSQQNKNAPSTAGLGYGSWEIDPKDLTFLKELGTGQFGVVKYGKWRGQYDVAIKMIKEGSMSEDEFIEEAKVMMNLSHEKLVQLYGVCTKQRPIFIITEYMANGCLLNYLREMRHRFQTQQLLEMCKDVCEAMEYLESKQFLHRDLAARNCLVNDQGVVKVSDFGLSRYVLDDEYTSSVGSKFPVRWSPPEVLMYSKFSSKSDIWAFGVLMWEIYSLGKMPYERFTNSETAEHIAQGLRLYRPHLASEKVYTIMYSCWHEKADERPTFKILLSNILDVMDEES
Experimental: as §1

CAMK2B (CaMKII beta) = CAMK2B (CaMKII beta) (Homo sapiens, UniProt Q13554)
Chain of CAMK2B (CaMKII beta) (Q13554 whole entry): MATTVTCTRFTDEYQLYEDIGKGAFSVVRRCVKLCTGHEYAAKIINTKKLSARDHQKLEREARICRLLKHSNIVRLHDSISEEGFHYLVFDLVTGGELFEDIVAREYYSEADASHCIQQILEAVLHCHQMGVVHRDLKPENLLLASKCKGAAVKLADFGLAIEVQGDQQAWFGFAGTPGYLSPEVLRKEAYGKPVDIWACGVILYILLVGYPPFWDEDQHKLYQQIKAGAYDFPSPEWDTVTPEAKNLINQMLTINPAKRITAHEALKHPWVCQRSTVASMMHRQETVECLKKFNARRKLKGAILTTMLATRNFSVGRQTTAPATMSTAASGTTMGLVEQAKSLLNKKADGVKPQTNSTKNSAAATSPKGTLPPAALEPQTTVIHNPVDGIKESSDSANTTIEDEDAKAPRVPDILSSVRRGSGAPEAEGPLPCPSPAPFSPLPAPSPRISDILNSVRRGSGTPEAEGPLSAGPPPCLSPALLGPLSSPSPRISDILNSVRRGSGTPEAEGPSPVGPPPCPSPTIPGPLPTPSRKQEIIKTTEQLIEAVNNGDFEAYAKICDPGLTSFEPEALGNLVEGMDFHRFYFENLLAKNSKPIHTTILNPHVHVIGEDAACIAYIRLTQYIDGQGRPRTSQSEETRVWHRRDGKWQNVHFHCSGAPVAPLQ
Experimental: as §1

DYRK1A = DYRK1A (Homo sapiens, UniProt Q13627); details: for Inhibition at 1 µM (%): DYRK1A, ZLYTE, ATP Km app
Experimental: as §1

FGR = FGR (Homo sapiens, UniProt P09769)
Chain of FGR (P09769 whole entry): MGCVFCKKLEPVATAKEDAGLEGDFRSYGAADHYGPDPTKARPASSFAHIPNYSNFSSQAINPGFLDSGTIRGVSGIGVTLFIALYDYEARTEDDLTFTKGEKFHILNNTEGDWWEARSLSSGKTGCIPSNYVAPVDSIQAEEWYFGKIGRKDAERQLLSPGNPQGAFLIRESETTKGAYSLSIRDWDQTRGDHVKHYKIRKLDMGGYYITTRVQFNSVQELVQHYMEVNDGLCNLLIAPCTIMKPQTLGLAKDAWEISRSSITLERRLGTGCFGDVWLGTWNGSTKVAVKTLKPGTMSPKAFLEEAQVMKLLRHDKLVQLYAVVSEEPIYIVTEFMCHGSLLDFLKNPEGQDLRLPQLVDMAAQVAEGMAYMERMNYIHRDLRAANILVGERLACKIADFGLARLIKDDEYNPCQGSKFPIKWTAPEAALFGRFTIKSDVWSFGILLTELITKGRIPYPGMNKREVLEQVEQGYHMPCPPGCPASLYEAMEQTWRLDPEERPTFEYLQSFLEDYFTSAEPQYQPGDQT
Experimental: as §1

LIMK2 = LIMK2 (Homo sapiens, UniProt P53671)
Chain of LIMK2 (P53671 whole entry): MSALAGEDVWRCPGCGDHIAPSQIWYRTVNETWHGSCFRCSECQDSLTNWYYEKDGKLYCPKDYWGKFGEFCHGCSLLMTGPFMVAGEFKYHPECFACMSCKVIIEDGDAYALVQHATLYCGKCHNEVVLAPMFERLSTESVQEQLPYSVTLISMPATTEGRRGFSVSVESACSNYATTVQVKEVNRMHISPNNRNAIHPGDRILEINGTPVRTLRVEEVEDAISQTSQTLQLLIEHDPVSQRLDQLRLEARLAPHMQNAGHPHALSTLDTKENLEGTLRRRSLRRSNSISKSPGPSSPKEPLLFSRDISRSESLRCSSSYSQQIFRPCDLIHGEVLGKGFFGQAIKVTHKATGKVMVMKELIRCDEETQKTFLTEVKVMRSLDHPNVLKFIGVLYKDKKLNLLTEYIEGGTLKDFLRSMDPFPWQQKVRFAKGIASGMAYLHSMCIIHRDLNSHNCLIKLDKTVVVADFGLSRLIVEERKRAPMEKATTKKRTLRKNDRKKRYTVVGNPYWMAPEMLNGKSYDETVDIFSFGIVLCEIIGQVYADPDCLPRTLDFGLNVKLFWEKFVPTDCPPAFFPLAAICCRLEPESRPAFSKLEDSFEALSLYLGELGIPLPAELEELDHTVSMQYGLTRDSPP
Experimental: as §1

MYLK (MLCK) = MYLK (MLCK) (Homo sapiens, UniProt Q15746)
Chain of MYLK (MLCK) (Q15746 whole entry): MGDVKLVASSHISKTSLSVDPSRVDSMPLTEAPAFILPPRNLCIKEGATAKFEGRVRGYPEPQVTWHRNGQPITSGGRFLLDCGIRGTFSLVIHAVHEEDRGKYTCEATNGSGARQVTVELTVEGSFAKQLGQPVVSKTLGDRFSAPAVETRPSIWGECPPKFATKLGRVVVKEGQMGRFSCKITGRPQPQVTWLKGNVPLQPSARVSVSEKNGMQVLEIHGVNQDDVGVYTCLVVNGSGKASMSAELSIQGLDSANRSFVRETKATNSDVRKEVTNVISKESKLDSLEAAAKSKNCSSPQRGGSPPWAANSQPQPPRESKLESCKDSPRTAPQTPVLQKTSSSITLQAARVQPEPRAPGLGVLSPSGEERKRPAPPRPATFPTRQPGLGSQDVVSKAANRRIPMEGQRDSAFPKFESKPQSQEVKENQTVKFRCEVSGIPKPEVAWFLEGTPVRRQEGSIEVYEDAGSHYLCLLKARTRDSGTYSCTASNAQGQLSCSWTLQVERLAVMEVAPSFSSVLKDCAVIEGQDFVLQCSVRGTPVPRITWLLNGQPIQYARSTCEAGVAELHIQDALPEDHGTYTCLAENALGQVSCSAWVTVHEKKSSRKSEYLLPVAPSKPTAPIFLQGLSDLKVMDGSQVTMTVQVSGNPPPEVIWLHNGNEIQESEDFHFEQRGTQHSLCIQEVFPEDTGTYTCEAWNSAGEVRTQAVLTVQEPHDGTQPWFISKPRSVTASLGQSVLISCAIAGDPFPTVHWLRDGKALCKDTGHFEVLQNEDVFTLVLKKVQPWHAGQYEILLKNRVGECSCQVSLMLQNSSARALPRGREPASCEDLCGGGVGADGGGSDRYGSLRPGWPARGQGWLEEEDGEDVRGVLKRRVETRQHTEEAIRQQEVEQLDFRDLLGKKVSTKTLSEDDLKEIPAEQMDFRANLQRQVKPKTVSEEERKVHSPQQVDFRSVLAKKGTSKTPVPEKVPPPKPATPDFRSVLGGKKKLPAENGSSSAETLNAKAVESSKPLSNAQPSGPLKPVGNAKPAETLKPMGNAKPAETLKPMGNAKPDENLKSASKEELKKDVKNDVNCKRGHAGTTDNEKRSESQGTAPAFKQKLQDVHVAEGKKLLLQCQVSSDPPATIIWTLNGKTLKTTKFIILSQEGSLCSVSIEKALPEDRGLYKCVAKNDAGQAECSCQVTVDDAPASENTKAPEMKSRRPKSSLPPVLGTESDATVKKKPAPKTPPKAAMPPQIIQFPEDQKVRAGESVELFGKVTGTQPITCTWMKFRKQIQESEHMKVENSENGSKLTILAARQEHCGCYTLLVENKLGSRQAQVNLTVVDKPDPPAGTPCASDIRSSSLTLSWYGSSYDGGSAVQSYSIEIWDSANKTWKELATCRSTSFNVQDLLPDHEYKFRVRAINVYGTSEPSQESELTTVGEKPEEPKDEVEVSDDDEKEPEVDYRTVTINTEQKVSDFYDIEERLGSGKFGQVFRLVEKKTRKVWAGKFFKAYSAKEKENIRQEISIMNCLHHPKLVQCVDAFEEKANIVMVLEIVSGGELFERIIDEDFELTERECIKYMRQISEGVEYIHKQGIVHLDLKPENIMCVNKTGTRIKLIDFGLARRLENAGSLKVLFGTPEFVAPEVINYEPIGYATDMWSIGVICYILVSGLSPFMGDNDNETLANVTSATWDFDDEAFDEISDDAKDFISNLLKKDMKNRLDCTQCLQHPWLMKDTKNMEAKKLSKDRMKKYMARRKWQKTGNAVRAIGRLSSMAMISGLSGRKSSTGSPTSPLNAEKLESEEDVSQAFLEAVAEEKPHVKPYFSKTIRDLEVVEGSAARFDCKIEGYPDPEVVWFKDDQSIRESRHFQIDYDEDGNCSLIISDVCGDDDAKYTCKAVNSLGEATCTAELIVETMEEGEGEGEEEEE
Experimental: as §1

PRKD2 (PKD2) = biological target: T2, PRKD2 (PKD2) (Homo sapiens, UniProt Q9BZL6); details: for Inhibition at 1 µM (%): ZLYTE, ATP Km app
T2 sequence (Q9BZL6 1-878): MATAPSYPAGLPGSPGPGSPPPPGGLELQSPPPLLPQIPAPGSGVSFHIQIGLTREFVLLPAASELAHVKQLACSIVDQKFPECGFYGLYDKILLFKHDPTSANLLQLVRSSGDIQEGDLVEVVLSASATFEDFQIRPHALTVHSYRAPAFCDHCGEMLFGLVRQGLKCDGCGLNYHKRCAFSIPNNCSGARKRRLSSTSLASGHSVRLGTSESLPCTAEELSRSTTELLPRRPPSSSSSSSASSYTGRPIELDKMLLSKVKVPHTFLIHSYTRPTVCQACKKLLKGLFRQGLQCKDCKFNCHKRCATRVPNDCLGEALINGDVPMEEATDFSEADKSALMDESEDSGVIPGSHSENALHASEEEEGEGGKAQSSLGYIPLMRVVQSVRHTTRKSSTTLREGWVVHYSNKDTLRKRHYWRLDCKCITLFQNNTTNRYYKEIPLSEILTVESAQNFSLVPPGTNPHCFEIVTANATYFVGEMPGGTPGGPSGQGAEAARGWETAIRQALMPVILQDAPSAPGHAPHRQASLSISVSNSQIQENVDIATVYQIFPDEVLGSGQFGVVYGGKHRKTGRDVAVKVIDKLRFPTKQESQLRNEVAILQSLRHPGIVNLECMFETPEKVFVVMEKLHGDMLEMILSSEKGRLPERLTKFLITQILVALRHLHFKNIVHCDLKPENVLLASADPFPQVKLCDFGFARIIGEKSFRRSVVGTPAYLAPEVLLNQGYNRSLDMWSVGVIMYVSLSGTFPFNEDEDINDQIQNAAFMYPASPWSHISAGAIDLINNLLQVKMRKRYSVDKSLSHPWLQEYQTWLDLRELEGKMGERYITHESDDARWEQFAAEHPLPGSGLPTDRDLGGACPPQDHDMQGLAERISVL
Experimental: as §1

SRC = SRC (Homo sapiens, UniProt P12931)
Chain of SRC (P12931 whole entry): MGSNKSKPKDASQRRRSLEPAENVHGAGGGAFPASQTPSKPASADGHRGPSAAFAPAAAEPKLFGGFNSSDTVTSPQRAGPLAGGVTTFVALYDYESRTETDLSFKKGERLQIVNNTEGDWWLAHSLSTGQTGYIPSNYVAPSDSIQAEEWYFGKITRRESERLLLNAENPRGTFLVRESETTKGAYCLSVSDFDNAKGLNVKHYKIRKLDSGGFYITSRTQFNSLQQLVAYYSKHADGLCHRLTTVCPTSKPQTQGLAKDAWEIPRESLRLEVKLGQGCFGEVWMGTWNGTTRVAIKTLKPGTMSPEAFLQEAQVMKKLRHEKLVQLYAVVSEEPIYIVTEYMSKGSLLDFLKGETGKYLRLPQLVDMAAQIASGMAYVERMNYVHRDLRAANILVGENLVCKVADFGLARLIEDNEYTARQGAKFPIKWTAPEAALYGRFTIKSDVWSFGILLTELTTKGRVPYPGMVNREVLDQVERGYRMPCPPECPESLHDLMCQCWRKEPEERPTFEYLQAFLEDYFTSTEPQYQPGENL
Experimental: as §1

TGFBR1 (ALK5) = biological target: T3, TGFBR1 (ALK5) (Homo sapiens, UniProt P36897); details: for Inhibition at 1 µM (%): LanthaScreen Binding
T3 sequence (P36897 34-503): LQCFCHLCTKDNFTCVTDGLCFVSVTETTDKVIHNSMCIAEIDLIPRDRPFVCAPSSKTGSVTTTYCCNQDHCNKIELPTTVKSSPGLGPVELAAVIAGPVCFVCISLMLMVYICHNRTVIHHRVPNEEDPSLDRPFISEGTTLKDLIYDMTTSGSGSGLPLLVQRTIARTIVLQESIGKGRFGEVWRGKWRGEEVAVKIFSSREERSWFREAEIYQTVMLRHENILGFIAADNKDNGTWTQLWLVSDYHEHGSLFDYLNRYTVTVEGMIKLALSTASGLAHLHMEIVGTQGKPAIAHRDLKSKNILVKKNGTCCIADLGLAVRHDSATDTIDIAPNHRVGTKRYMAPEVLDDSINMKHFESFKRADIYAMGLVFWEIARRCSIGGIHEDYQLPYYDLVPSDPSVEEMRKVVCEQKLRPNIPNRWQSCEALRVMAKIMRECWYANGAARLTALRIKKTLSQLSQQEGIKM
Experimental: as §1

[1] = 1 h, 1 μM WEL028, 1 h preincubation

## C#CCOc1ccc(Nc2ncc(Cl)c(Nc3ccccc3NC(=O)C=C)n2)c(OC)c1 [Compound 6]
BRSK2; [1]
  inhibition at 1 µM: 7%
BRSK2; BRSK2, 1 µM, LanthaScreen Binding, listed as WEL028, 1 µM
  Inhibition at 1 µM (%): 8%
BRSK2; read-out: Inhibition at 1 µM (%), BRSK2, 1 µM, LanthaScreen Binding
  inhibition at 1 µM: 7%
BTK; 1 μM WEL028, 1 h preincubation
  Inhibition (%): 11%
BTK; BTK, 1 µM, ZLYTE, ATP Km app
  Inhibition at 1 µM (%): 17%
CAMK2B (CaMKII beta); [1]
  inhibition at 1 µM: 0%
CAMK2B (CaMKII beta); CAMK2B (CaMKII beta), 1 µM, ZLYTE, ATP Km app, listed as WEL028, 1 µM
  Inhibition at 1 µM (%): -1% and 1%
DYRK1A; [1]
  inhibition at 1 µM: 1%
DYRK1A
  Inhibition at 1 µM (%): 3%
DYRK1A; listed as WEL028, 1 µM
  Inhibition at 1 µM (%): 0%
FGR; [1]
  inhibition at 1 µM: 10%
FGR; FGR, 1 µM, ZLYTE, ATP Km app, listed as WEL028, 1 µM
  Inhibition at 1 µM (%): 12%
FGR; read-out: Inhibition at 1 µM (%), FGR, 1 µM, ZLYTE, ATP Km app
  inhibition at 1 µM: 7%
LIMK2; [1]
  inhibition at 1 µM: -2%
LIMK2; LIMK2, 1 µM, LanthaScreen Binding, listed as WEL028, 1 µM
  Inhibition at 1 µM (%): -5% and 1%
MYLK (MLCK); 1 h
  inhibition at 1 µM: 15%
MYLK (MLCK); read-out: Inhibition at 1 µM (%)
  inhibition at 1 µM: 15%
PRKD2 (PKD2)
  Inhibition at 1 µM (%): 2%
PRKD2 (PKD2); listed as WEL028, 1 µM
  Inhibition at 1 µM (%): 5%
PRKD2 (PKD2); [1]
  inhibition at 1 µM: 3%
SRC; 1 µM, ZLYTE, ATP Km app, listed as WEL028, 1 µM
  Inhibition at 1 µM (%): 8%
SRC; [1]
  inhibition at 1 µM: 9%
SRC; read-out: Inhibition at 1 µM (%), 1 µM, ZLYTE, ATP Km app
  inhibition at 1 µM: 10%
TGFBR1 (ALK5)
  Inhibition at 1 µM (%): 3%
TGFBR1 (ALK5); listed as WEL028, 1 µM
  Inhibition at 1 µM (%): 8%
TGFBR1 (ALK5); [1]
  inhibition at 1 µM: 6%
